Laboratory results from patent publication US20210069143A1, “LOW-ALCOHOL ANTIMICROBIAL COMPOSITION AND USE THEREOF” (Zurex Pharma, Inc., priority 2017, published 2021).

Tests used:
[1] = Gamma radiation (25-40 kGy) and 5-month storage stability of composition components in HDPE bottles; assay type: physicochemical; details: for Concentration % Change, T = 0 vs. T = 5 Months / % Change (Unexposed vs. Exposed) / % LC, Exposed / % LC, Unexposed / % IPA, Exposed / % IPA, Unexposed: HDPE bottle
Method: An antimicrobial composition comprising isopropyl alcohol, citric acid, methyl paraben, propyl paraben, and methylene blue in HDPE bottles was exposed to 25-40 kGy radiation, and the amount of each component detected in the solution before and after radiation was tested. The testing was repeated after 5 months of storage. The results are presented in Tables 1 and 2, below, wherein “exposed” indicates the samples exposed to gamma radiation and “unexposed” indicates the samples that were not exposed to gamma radiation.

tested microorganisms = experiment: Antimicrobial effect of components individually and together at various dilutions; assay type: cell-based; details: against most tested microorganisms
Method: The antimicrobial effect of various components of the composition of Example 1 were tested individually and together at various dilutions. The results are presented in FIG. 1A-1I, wherein shaded boxes indicate no significant response (<3 log10 reduction).

[2] = T = 0, exposed to 25-40 kGy gamma radiation
[3] = T = 0, not exposed to gamma radiation
[4] = T = 5 months, exposed to 25-40 kGy gamma radiation
[5] = T = 5 months, not exposed to gamma radiation

| SMILES | change in amount of component upon gamma radiation ([1]; 25-40 kGy, HDPE bottles) | Concentration % Change, T = 0 vs. T = 5 Months ([1]; Exposed to gamma radiation) | % Change (Unexposed vs. Exposed) ([1]; T = 0) | % LC, Exposed [1, 2] | % LC, Unexposed [1, 3] | % Change (Unexposed vs. Exposed) ([1]; T = 5 months) | % LC, Exposed [1, 4] | % LC, Unexposed [1, 5] | Concentration % Change, T = 0 vs. T = 5 Months ([1]; Unexposed) | % IPA, Exposed [1, 2] | % IPA, Unexposed [1, 3] | % IPA, Exposed [1, 4] | % IPA, Unexposed [1, 5] | antimicrobial effect, alone (tested microorganisms; 25% v/v strength solution) | share of component in solution degraded by gamma radiation ([1]; 25-40 kGy, HDPE bottles, accompanied by a color change) | antimicrobial effect, alone (tested microorganisms; all tested concentrations) |
| --- | --- | --- | --- | --- | --- | --- | --- | --- | --- | --- | --- | --- | --- | --- | --- | --- |
| O=C(O)CC(O)(CC(=O)O)C(=O)O [Citric Acid, citric acid] | negligible | −4.0% | 1.1% | 97.4 % LC | 96.3 % LC | 0.4% | 93.5 % LC | 93.1 % LC | −3.3% | – | – | – | – | – | – | – |
| CC(C)O [IPA, isopropyl alcohol] | negligible | 0.7% | 1.2% | – | – | −0.1% | – | – | 1.6% | 68.6% | 68.1% | 69.1% | 69.2% | little to no effect | – | – |
| CN(C)c1ccc2nc3ccc(=[N+](C)C)cc-3sc2c1 [Methylene Blue, methylene blue] | – | – | −57.4% | 44.9 % LC | 105.5 % LC | −49.4% | 47.3 % LC | 93.4 % LC | – | – | – | – | – | – | approximately 50% | little to no effect |
| COC(=O)c1ccc(O)cc1 [Methylparaben, methyl-para-hydroxybenzoate] | – | 0.7% | −0.4% | 74.5 % LC | 74.8 % LC | −0.3% | 75.0 % LC | 75.2 % LC | 0.5% | – | – | – | – | – | – | – |
| CCCOC(=O)c1ccc(O)cc1 [Propylparaben, propyl-para-hydroxybenzoate] | – | 0.4% | 0% | 74.9 % LC | 74.9 % LC | −0.1% | 75.2 % LC | 75.3 % LC | 0.5% | – | – | – | – | – | – | – |
| O=C(O)CC(O)(CC(=O)O)C(=O)O [citrate] | – | – | – | – | – | – | – | – | – | – | – | – | – | – | – | little to no effect |
